A short description of data set [1]: GHS categories as the set defines them, by LD50: 1 up to 5, 2 up to 50, 3 up to 300, 4 up to 2000, 5 above 2000 mg/kg. As to conditions: rat; in vivo; po.
The nature of data set [2]: rat acute oral toxicity. The following applies: in vivo.
A short description of data set [3]: Nontoxic (NT; LD50>2,000mg/kg vs. all others). The following applies: rat; in vivo; po. The source says:
[…]The data set underlying the modeling effort for this project was initially compiled by NICEATM and U.S. EPA’s CCTE. Briefly, LD50 data were collected from rat acute oral systemic toxicity tests, including limit tests, ranges/confidence intervals, and discrete LD50 values. The full data set included 21,200 LD50 entries for 15,688 substances. […] Data were reviewed to ensure that LD50 values with obvious errors in the extracted data such as unit conversion errors (e.g., comma and decimal separator misplacements) were either fixed or removed. After this review, 16,209 LD50 values remained. Many of the chemicals represented had multiple LD50 entries, requiring that a single representative value per Chemical Abstracts Service Registry Number (CASRN) identifier be defined to facilitate modeling efforts. Based on ATWG feedback and to define the representative LD50 as a protective value while accounting for the distribution across multiple LD50s, the median of the lowest quartile was computed using only discrete LD50 values (omitting limit test data and range and confidence interval data). A detailed summary of the data compilation is available online on the NICEATM webpage dedicated to the collaborative modeling project (NTP 2020).
[…][…] For categorical designations, limit test and range/confidence interval LD50 data were integrated wherever possible. As such, the number of chemicals with end point values/calls varies across the modeling end points (Table 3) based on whether chemicals had representative LD50 values and/or other data. If a chemical had both, the representative value was used to determine categorical calls rather than limit test data. Some data were useable only for certain end points and categories depending on the thresholds. For example, ranges that spanned multiple hazard categories were considered only for the binary (very toxic/nontoxic) end points and omitted from rendering a determination for hazard category assignment.
[…]The final data set comprising 11,992 chemicals was split into training and evaluation sets […], respectively. This process was performed semirandomly by ordering chemicals based on the five end points (categorical and continuous LD50 values) and partitioning every fourth record into the evaluation set accordingly. This approach was taken to ensure an equivalent distribution of the LD50 values and the different hazard categories between the training and the evaluation sets without supervised sampling of the chemicals based on structures (Figure 1A). The sources of the chemical structures were also kept equivalent between the two sets, with chemical structures obtained from DSSTox, being the highest quality, representing over 75% of each set (Figure 1B).

As a reminder, the LD50 is the dose expected to kill half of the subjects tested. The low end stands for a more toxic substance, the high end for a less toxic substance.

Compound `Oc1ccccc1` gave a GHS category in data set [1] of 5. In addition, the 50% lethal dose (LD50) in data set [2] came to 317 mg/kg. Regarding `CCCCCCCC/C=C\CCCCCCCC(=O)O`, the GHS category in data set [1] stood at 5. The compound also had an LD50 in data set [2] of 25000 mg/kg. For the compound `O=CC1=C(Cl)C(=CO)CCC1`, the nontoxic entry in data set [3] is reported as “FALSE (not_nontoxic)”. For `CCC[Si](Cl)(Cl)Cl`, in data set [3], the nontoxic entry is “FALSE (not_nontoxic)”.

The compound `Nc1ccc(S(=O)(=O)O)cc1` came in with a GHS category in data set [1] of 5. Besides, the LD50 in data set [2] was 12300 mg/kg. Consider `CCOC(=O)C(C#N)=CN`, for which, in data set [3], the nontoxic result is “FALSE (not_nontoxic)”.

`CC(=O)O` registered a GHS category in data set [1] of 5. The compound also returned a 50% lethal dose (LD50) in data set [2] of 1940 mg/kg.

As to `C=CCOC(=O)C(C)(C)O`, the nontoxic result in data set [3] is recorded as “FALSE (not_nontoxic)”. `C=CN1CCCC1=O`: in data set [1], the GHS category came out at 5. In data set [2], this compound displayed an LD50 of 1020 mg/kg. Turning to `COC1CCCC1`, the nontoxic entry in data set [3] is reported as “FALSE (not_nontoxic)”. Same read-out and setting: the same measure for `Cc1cc(C)c(O)c(C(C)(C)C)c1`: “FALSE (not_nontoxic)”. As to `OCC(O)CO`, the GHS category in data set [1] turned out to be 5. The compound also yielded an LD50 in data set [2] of 9080 mg/kg. The matching figures for `CCC[C@@H]1C[C@@H](C(=O)N[C@@H]([C@H]2O[C@H](SC)[C@H](O)[C@@H](O)[C@H]2O)[C@@H](C)O)N(C)C1`: 5 and 1000 mg/kg.

Take `C1CCC2=NCCCN2CC1`: in data set [3], the nontoxic entry is recorded as “FALSE (not_nontoxic)”.

For `CCN(CC)CC`, the GHS category in data set [1] came to 5. For the same compound, the 50% lethal dose (LD50) in data set [2] was found to be 460 mg/kg. Consider `CC12CC(N3CCOCC3)C(O)CC1CCC1C2CCC2(C)C(O)C(N3CCCC3)CC12` (stereo unspecified), for which, in data set [3], the nontoxic entry is listed as “FALSE (not_nontoxic)”.

On to `CC(CC(C)(C)C)C[Si](Cl)(Cl)Cl` (stereo unspecified), for which the nontoxic entry in data set [3] was “FALSE (not_nontoxic)”. Turning to `CCCCCCCC[N+](C)(CCCCCCCC)CCCCCCCC`, the nontoxic entry in data set [3] is recorded as “FALSE (not_nontoxic)”. With `COc1c(C)cnc(CCl)c1C`, in data set [3], the nontoxic entry is listed as “FALSE (not_nontoxic)”.

With `CO[Si](C)(CCCCl)OC`, in data set [3], the nontoxic entry is “FALSE (not_nontoxic)”. Take `O=C1c2ccccc2C(=O)N1[C@@H]1CCCNC1`: in data set [3], the nontoxic entry was “FALSE (not_nontoxic)”. The same measure, in the same setting: the same measure for `CCCCCCCCCCCCCCCC[Si](Cl)(Cl)Cl`: “FALSE (not_nontoxic)”. `NC(N)=O`: the GHS category in data set [1] was determined as 5. In addition, the median lethal dose (LD50) in data set [2] came to 8470 mg/kg.

As to `Nc1nc(N)nc(N)n1`, the GHS category in data set [1] worked out at 5. In data set [2], this compound yielded a median lethal dose (LD50) of 3160 mg/kg. Take `O=C1CCCCCN1`: the GHS category in data set [1] came out at 4. In data set [2], this compound yielded a 50% lethal dose (LD50) of 1200 mg/kg. In data set [1], `CC1OC(=O)C(C)OC1=O` (stereo unspecified) yielded a GHS category of 5. Besides, the median lethal dose (LD50) in data set [2] was found to be 3540 mg/kg. Regarding `CN(C)C=CC(=O)c1cccnc1`, the nontoxic result in data set [3] was “FALSE (not_nontoxic)”.

In the case of `CC(C)OC(=O)NP(N)(N)=O`, the nontoxic result in data set [3] was “FALSE (not_nontoxic)”.

Regarding `Cc1ccc(C(C)(C)C)c(O)c1`, the nontoxic entry in data set [3] is reported as “FALSE (not_nontoxic)”. `O=S(=O)(O)c1cc(Nc2nc(Nc3ccccc3)nc(N(CCO)CCO)n2)ccc1/C=C/c1ccc(Nc2nc(Nc3ccccc3)nc(N(CCO)CCO)n2)cc1S(=O)(=O)O` had a GHS category in data set [1] of 5. The same compound came in with a median lethal dose (LD50) in data set [2] of 12100 mg/kg. In turn, `N[C@@H](CCC(=O)O)C(=O)O` gave a GHS category in data set [1] of 5. In addition, the median lethal dose (LD50) in data set [2] stood at 15800 mg/kg.

`NCCNCCNCCNCCN` gave a GHS category in data set [1] of 4. Moreover, in data set [2], the median lethal dose (LD50) was 2100 mg/kg.

Turning to `CO[Si](C)(CN=C=O)OC`, the nontoxic result in data set [3] is “FALSE (not_nontoxic)”. Take `CN(C(=O)CCl)c1ccc([N+](=O)[O-])cc1`: in data set [3], the nontoxic entry is recorded as “FALSE (not_nontoxic)”.

Regarding `c1ccc2[nH]nnc2c1`, the GHS category in data set [1] worked out at 4. Also, in data set [2], the 50% lethal dose (LD50) is 500 mg/kg.

(Values after the CATMoS acute toxicity set (Mansouri et al. 2021).)
